Experimental data published in patent US10538487B2, “Sulfonylureas and related compounds and use of same” (priority 2015, dated 2020).

Target: NLRP3 inflammasome (Homo sapiens, UniProt Q96P20)
Assay: Inhibition of IL-1β release, NLRP3 inflammasome activation assay in HMDM
Assay type: cell-based
Conditions: inhibition of IL-1β release, class symbols, read-out: Avg. IL-1β IC50 HMDM
Method: The following assays can be used to determine inhibitory activity of test compounds on the NLRP3 inflammasome using common stimuli such as adenosine triphosphate, nigericin, LeuLeu-OMe or monosodium urate crystals (MSU).
To generate HMDM, human monocytes are isolated from buffy coat blood using Ficoll-Plaque Plus (GE Healthcare) and density centrifugation. CD14^+ cell selection is performed using MACS magnetic beads (Miltenyl Biotec).
HMDM are seeded at 1×10^5/ml. […] Medium is removed and replaced with serum free medium (SFM) containing test compound 30 min prior to NLRP3 stimulation. […] ATP can be sourced from Sigma Aldrich, nigericin and MSU from Invivogen and LeuLeu-Ome from Chem-Impex International.
For ELISA and cell death assays cells are seeded in 96 well plates. Supernatants are removed and analysed using ELISA kits according to the manufacturer's instructions (DuoSet® R&D Systems, ReadySetGo!® eBioscience, BD OptEIA™, or Perkin Elmer AlphaLISA®). Cell death is assessed by measurement of LDH release relative to a 100% cell lysis control using the CytoTox96® non-radioactive cytotoxicity assay (Promega).

NLRP3 inflammasome, sequence (Q96P20 whole entry): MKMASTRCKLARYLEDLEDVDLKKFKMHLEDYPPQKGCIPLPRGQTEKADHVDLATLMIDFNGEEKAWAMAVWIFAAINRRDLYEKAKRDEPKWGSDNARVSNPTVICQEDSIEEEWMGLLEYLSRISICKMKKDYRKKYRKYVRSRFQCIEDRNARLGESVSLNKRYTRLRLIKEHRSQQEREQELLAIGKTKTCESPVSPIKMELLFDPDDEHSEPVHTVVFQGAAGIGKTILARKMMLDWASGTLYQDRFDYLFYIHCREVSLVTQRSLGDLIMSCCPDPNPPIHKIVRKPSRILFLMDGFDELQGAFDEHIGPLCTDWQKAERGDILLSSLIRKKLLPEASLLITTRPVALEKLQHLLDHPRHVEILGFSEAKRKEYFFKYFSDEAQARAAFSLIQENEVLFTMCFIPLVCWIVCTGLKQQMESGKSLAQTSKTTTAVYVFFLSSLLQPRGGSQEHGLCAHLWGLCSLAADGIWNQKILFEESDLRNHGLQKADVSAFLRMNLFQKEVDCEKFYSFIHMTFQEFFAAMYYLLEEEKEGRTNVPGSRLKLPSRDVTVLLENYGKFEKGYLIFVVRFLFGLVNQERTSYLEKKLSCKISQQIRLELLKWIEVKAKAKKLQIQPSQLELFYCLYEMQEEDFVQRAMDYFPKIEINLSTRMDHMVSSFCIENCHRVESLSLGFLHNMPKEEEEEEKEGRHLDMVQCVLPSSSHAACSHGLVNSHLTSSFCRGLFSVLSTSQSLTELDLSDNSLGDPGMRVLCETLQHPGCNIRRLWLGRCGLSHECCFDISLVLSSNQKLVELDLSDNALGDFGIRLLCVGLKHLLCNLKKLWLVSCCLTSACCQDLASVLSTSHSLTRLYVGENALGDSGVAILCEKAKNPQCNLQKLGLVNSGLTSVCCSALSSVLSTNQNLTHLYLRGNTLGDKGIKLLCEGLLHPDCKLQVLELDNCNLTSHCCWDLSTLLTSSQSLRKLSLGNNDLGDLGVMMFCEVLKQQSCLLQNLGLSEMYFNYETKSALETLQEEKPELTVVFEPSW

| SMILES | IC50 [nM] |
| --- | --- |
| Cc1cnc(C(=O)NCCc2ccc(S(=O)(=O)NC(=O)Nc3c4c(cc5c3CCC5)CCC4)cc2)cn1 [N-(4-(N-((1,2,3,5,6,7-hexahydro-s-indacen-4-yl)carbamoyl)sulfamoyl)phenethyl)-5-methylpyrazine-2-carboxamide] | < 1000 |
| CC(C)(O)c1coc(S(=O)(=O)NC(=S)Nc2c3c(cc4c2CCC4)CCC3)c1 [N-((1,2,3,5,6,7-hexahydro-s-indacen-4-yl)carbamothioyl)-4-(2-hydroxypropan-2-yl)furan-2-sulfonamide] | < 1000 |
| Cc1cc(S(=O)(=O)NC(=O)Nc2c3c(cc4c2CCC4)CCC3)nn1C [N-((1,2,3,5,6,7-hexahydro-s-indacen-4-yl)carbamoyl)-1,5-dimethyl-1H-pyrazole-3-sulfonamide] | < 1000 |
| CC(c1ccccc1)n1ccc(S(=O)(=O)NC(=O)Nc2c3c(cc4c2CCC4)CCC3)n1 (centres unmarked) [N-((1,2,3,5,6,7-hexahydro-s-indacen-4-yl)carbamoyl)-1-(1-phenylethyl)-1H-pyrazole-3-sulfonamide] | < 1000 |
| O=C(Nc1c2c(cc3c1CCC3)CCC2)NS(=O)(=O)c1ccn(CCN2CCCCC2)n1 [N-((1,2,3,5,6,7-hexahydro-s-indacen-4-yl)carbamoyl)-1-(2-(piperidin-1-yl)ethyl)-1H-pyrazole-3-sulfonamide] | < 10000 |
| O=C(Nc1c2c(cc3c1CCC3)CCC2)NS(=O)(=O)c1ccn(C(F)(F)F)n1 [N-((1,2,3,5,6,7-hexahydro-s-indacen-4-yl)carbamoyl)-1-(trifluoromethyl)-1H-pyrazole-3-sulfonamide] | < 100 |
| CC(C)n1nc(S(=O)(=O)NC(=O)Nc2c3c(cc4c2CCC4)CCC3)cc1C(F)(F)F [N-((1,2,3,5,6,7-hexahydro-s-indacen-4-yl)carbamoyl)-1-isopropyl-5-(trifluoromethyl)-1H-pyrazole-3-sulfonamide] | < 1000 |
| Cn1nc(S(=O)(=O)NC(=O)Nc2c3c(cc4c2CCC4)CCC3)cc1C(F)(F)F [N-((1,2,3,5,6,7-hexahydro-s-indacen-4-yl)carbamoyl)-1-methyl-5-(trifluoromethyl)-1H-pyrazole-3-sulfonamide] | < 1000 |
| O=C(Nc1c2c(cc3c1CCC3)CCC2)NS(=O)(=O)c1ccn(-c2ccccc2)n1 [N-((1,2,3,5,6,7-hexahydro-s-indacen-4-yl)carbamoyl)-1-phenyl-1H-pyrazole-3-sulfonamide] | < 1000 |
| O=C(Nc1c2c(cc3c1CCC3)CCC2)NS(=O)(=O)c1ccc2c(c1)S(=O)(=O)CC2 [N-((1,2,3,5,6,7-hexahydro-s-indacen-4-yl)carbamoyl)-2,3-dihydrobenzo[b]thiophene-6-sulfonamide 1,1-dioxide] | < 1000 |
| COc1ccccc1S(=O)(=O)NC(=O)Nc1c2c(cc3c1CCC3)CCC2 [N-((1,2,3,5,6,7-hexahydro-s-indacen-4-yl)carbamoyl)-2-methoxybenzenesulfonamide] | < 1000 |
| CC(C)(O)c1cccc(S(=O)(=O)NC(=O)Nc2c3c(cc4c2CCC4)CCC3)c1 [N-((1,2,3,5,6,7-hexahydro-s-indacen-4-yl)carbamoyl)-3-(2-hydroxypropan-2-yl)benzenesulfonamide] | < 100 |
| O=C(Nc1c2c(cc3c1CCC3)CCC2)NS(=O)(=O)c1cccc(-n2cc(-c3ccccc3)nn2)c1 [N-((1,2,3,5,6,7-hexahydro-s-indacen-4-yl)carbamoyl)-3-(4-phenyl-1H-1,2,3-triazol-1-yl)benzenesulfonamide] | < 10000 |
| [2H]C([2H])([2H])C(O)(c1cc(S(=O)(=O)NC(=O)Nc2c3c(cc4c2CCC4)CCC3)oc1C)C([2H])([2H])[2H] [N-((1,2,3,5,6,7-hexahydro-s-indacen-4-yl)carbamoyl)-4-(2-hydroxypropan-2-yl-1,1,1,3,3,3-d6)-5-methylfuran-2-sulfonamide] | < 100 |
| O=C(Nc1c2c(cc3c1CCC3)CCC2)NS(=O)(=O)c1cc(C(F)(F)F)ccn1 [N-((1,2,3,5,6,7-hexahydro-s-indacen-4-yl)carbamoyl)-4-(trifluoromethyl)pyridine-2-sulfonamide] | < 100 |
| CC(C)c1cc(S(=O)(=O)NC(=O)Nc2c3c(cc4c2CCC4)CCC3)nn1C [N-((1,2,3,5,6,7-hexahydro-s-indacen-4-yl)carbamoyl)-5-isopropyl-1-methyl-1H-pyrazole-3-sulfonamide] | < 1000 |
| O=C(Nc1c2c(cc3c1CCC3)CCC2)NS(=O)(=O)c1cnc2c(c1)CCC2 [N-((1,2,3,5,6,7-hexahydro-s-indacen-4-yl)carbamoyl)-6,7-dihydro-5H-cyclopenta[b]pyridine-3-sulfonamide] | < 100 |
| O=C(Nc1c2c(cc3c1CCC3)CCC2)NS(=O)(=O)c1ccc2c(c1)OCO2 [N-((1,2,3,5,6,7-hexahydro-s-indacen-4-yl)carbamoyl)benzo[d][1,3]dioxole-5-sulfonamide] | < 1000 |
| O=C(Nc1c2c(cc3c1CCC3)CCC2)NS(=O)(=O)c1cc2ccccc2o1 [N-((1,2,3,5,6,7-hexahydro-s-indacen-4-yl)carbamoyl)benzofuran-2-sulfonamide] | < 1000 |

| SMILES | IC50 [nM] |
| --- | --- |
| O=C(Nc1c2c(cc3c1CCC3)CCC2)NS(=O)(=O)C1CCCCC1 [N-((1,2,3,5,6,7-hexahydro-s-indacen-4-yl)carbamoyl)cyclohexanesulfonamide] | < 10000 |
| O=C(Nc1c2c(cc3c1CCC3)CCC2)NS(=O)(=O)C1CCCC1 [N-((1,2,3,5,6,7-hexahydro-s-indacen-4-yl)carbamoyl)cyclopentanesulfonamide] | < 10000 |
| O=C(Nc1c2c(cc3c1CCC3)CCC2)NS(=O)(=O)N1CCOCC1 [N-((1,2,3,5,6,7-hexahydro-s-indacen-4-yl)carbamoyl)morpholine-4-sulfonamide] | < 10000 |
| O=C(Nc1c2c(cc3c1CCC3)CCC2)NS(=O)(=O)c1cccc2cccnc12 [N-((1,2,3,5,6,7-hexahydro-s-indacen-4-yl)carbamoyl)quinoline-8-sulfonamide] | < 1000 |
| O=C(Nc1c2c(cc3c1CCC3)CCC2)NS(=O)(=O)C1CCOCC1 [N-((1,2,3,5,6,7-hexahydro-s-indacen-4-yl)carbamoyl)tetrahydro-2H-pyran-4-sulfonamide] | < 1000 |
| O=C(Nc1c2c(cc3c1CCC3)CCC2)NS(=O)(=O)C1CCOC1 (centres unmarked) [N-((1,2,3,5,6,7-hexahydro-s-indacen-4-yl)carbamoyl)tetrahydrofuran-3-sulfonamide] | < 10000 |
| CC(C)(O)c1coc(S(=O)(=O)NC(=O)Nc2c3c(cc4c2CCC4O)CCC3)c1 (centres unmarked) [N-((1-hydroxy-1,2,3,5,6,7-hexahydro-s-indacen-4-yl)carbamoyl)-4-(2-hydroxypropan-2-yl)furan-2-sulfonamide] | < 10000 |
| O=C(Nc1c2c(cc3c1OCC3)OCC2)NS(=O)(=O)c1cccc(C2(C(F)(F)F)N=N2)c1 [N-((2,3,6,7-tetrahydrobenzo[1,2-b:4,5-b′]difuran-4-yl)carbamoyl)-3-(3-(trifluoromethyl)-3H-diazirin-3-yl)benzenesulfonamide] | < 10000 |
| CC(C)c1cccc(C(C)C)c1NC(=O)NS(=O)(=O)c1cc(C(F)(F)F)n(C)n1 [N-((2,6-diisopropylphenyl)carbamoyl)-1-methyl-5-(trifluoromethyl)-1H-pyrazole-3-sulfonamide] | < 10000 |
| Cc1oc(S(=O)(=O)NC(=O)Nc2c(C(C)C)cccc2C(C)C)cc1C(C)(C)O [N-((2,6-diisopropylphenyl)carbamoyl)-4-(2-hydroxypropan-2-yl)-5-methylfuran-2-sulfonamide] | < 100 |
| CC(C)(O)c1coc(S(=O)(=O)NC(=O)Nc2c3c(cc4c2C(O)CC4)CCC3)c1 (centres unmarked) [N-((3-hydroxy-1,2,3,5,6,7-hexahydro-s-indacen-4-yl)carbamoyl)-4-(2-hydroxypropan-2-yl)furan-2-sulfonamide] | < 1000 |
| CC(C)(C)c1cc(C(C)(C)C)nc(NC(=O)NS(=O)(=O)c2cc(C(C)(C)O)co2)n1 [N-((4,6-di-tert-butylpyrimidin-2-yl)carbamoyl)-4-(2-hydroxypropan-2-yl)furan-2-sulfonamide] | < 50000 |
| [2H]C([2H])([2H])C(O)(c1cc(S(=O)(=O)NC(=O)Nc2c3c(c(Br)c4c2OCC4)CCC3)oc1C)C([2H])([2H])[2H] [N-((4-bromo-3,5,6,7-tetrahydro-2H-indeno[5,6-b]furan-8-yl)carbamoyl)-4-(2-hydroxypropan-2-yl-1,1,1,3,3,3-d6)-5-methylfuran-2-sulfonamide] | < 100 |
| CC(C)c1cc(Cl)cc(C(C)C)c1NC(=O)NS(=O)(=O)c1cccc2cnccc12 [N-((4-chloro-2,6-diisopropylphenyl)carbamoyl)isoquinoline-5-sulfonamide] | < 1000 |
| CC(C)c1cc(Cl)cc(C(C)C)c1NC(=O)NS(=O)(=O)c1ccc2ccccc2c1 [N-((4-chloro-2,6-diisopropylphenyl)carbamoyl)naphthalene-2-sulfonamide] | < 10000 |
| CC(C)c1cc(Cl)cc(C(C)C)c1NC(=O)NS(=O)(=O)c1cnc2ccccc2c1 [N-((4-chloro-2,6-diisopropylphenyl)carbamoyl)quinoline-3-sulfonamide] | < 100 |
| CC(C)c1cc(Cl)cc(C(C)C)c1NC(=O)NS(=O)(=O)c1cccc2ncccc12 [N-((4-chloro-2,6-diisopropylphenyl)carbamoyl)quinoline-5-sulfonamide] | < 1000 |
| CC(C)c1cc(Cl)cc(C(C)C)c1NC(=O)NS(=O)(=O)c1cccc2cccnc12 [N-((4-chloro-2,6-diisopropylphenyl)carbamoyl)quinoline-8-sulfonamide] | < 10000 |
| Cc1cc(C2CC2)nc(NC(=O)NS(=O)(=O)c2cc(C(C)(C)O)co2)n1 [N-((4-cyclopropyl-6-methylpyrimidin-2-yl)carbamoyl)-4-(2-hydroxypropan-2-yl)furan-2-sulfonamide] | < 1000 |
